From ChEMBL document CHEMBL1201862, “PubChem BioAssay data set” (2004)
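Results reflect a 48-hour exposure of cells in 96-well plates to compound at five concentrations. GI50 is the concentration that inhibits growth by half.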 Activity calls are given as the source filed them. No stated cut-off is given here; in the data, active = GI50 up to about 1.1 µM and inactive = higher.

Key:
Assay in all cases: NCI anticancer screen, dose series, 48 h
[1] = system: A498
[2] = system: A549
[3] = system: CCRF-CEM
[4] = system: COLO 205
[5] = system: DLD-1
[6] = system: DMS-114
[7] = system: DMS-273
[8] = system: EKVX
[9] = system: HCC 2998
[10] = system: HCT-116
[11] = system: HCT-15
[12] = system: HL-60
[13] = system: HOP-18
[14] = system: HOP-62
[15] = system: HOP-92
[16] = system: HT-29
[17] = system: IGROV-1
[18] = system: K562
[19] = system: KM-20L2
[20] = system: KM12
[21] = system: LOX IMVI
[22] = system: M19-MEL
[23] = system: MCF7
[24] = system: MOLT-4
[25] = system: Malme-3M
[26] = system: NCI-H226
[27] = system: NCI-H23
[28] = system: NCI-H460
[29] = system: NCI-H522
[30] = system: NCI/ADR-RES
[31] = system: OVCAR-3
[32] = system: OVCAR-4
[33] = system: OVCAR-5
[34] = system: OVCAR-8
[35] = system: RPMI-8226
[36] = system: RXF 393
[37] = system: SF-268
[38] = system: SF-295
[39] = system: SF-539
[40] = system: SK-MEL-28
[41] = system: SK-MEL-2
[42] = system: SK-MEL-5
[43] = system: SK-OV-3
[44] = system: SN12C
[45] = system: SNB-19
[46] = system: SNB-75
[47] = system: SNB-78
[48] = system: SW-620
[49] = system: U-251
[50] = system: UACC-257
[51] = system: UACC-62
[52] = system: UO-31
[53] = system: XF498
[54] = system: 786-0
[55] = system: ACHN
[56] = system: LXFL 529
[57] = system: M14
[58] = system: SR
[59] = system: TK-10
[60] = system: CAKI-1

Measured: GI50

Nc1ccc2[nH]c3c(-c4ccccc4)nccc3c2c1
41.3 µM: [11]
inactive: [1] 36.5 µM | [2] 48.9 µM | [3] 14.1 µM | [4] 44 µM | [5] 64.7 µM | [6] 37.6 µM | [7] 53.3 µM | [8] > 100 µM | [9] 28.8 µM | [10] 34.6 µM | [12] 12 µM | [13] > 100 µM | [14] > 84.5 µM | [15] 39.1 µM | [16] 36.1 µM | [17] 57.4 µM | [18] 24.4 µM | [19] 48.3 µM | [20] 53.7 µM | [21] 28.9 µM | [22] 64.6 µM | [23] > 45.1 µM | [24] 4.46 µM | [25] 76.4 µM | [26] 27.8 µM | [27] > 73.6 µM | [28] 11.3 µM | [29] 59.2 µM | [30] 24 µM | [31] 56.9 µM | [32] 23.7 µM | [33] > 88.3 µM | [34] 72.3 µM | [35] 20.3 µM | [36] 38.2 µM | [37] > 100 µM | [38] 41.2 µM | [39] 71.6 µM | [40] > 100 µM | [41] > 100 µM | [42] 19.8 µM | [43] 54.2 µM | [44] > 87.7 µM | [45] > 100 µM | [46] 29.6 µM | [47] > 55 µM | [48] 65.8 µM | [49] 75 µM | [50] > 75.3 µM | [51] 29.2 µM | [52] 37.7 µM | [53] 61.2 µM

O=C1CCC2(CCC(=O)NC2=O)C(=O)N1
> 100 µM: [11]
inactive: [54] > 100 µM | [2] > 100 µM | [55] > 100 µM | [3] > 100 µM | [4] > 100 µM | [6] > 100 µM | [7] > 100 µM | [8] > 100 µM | [9] > 100 µM | [10] > 100 µM | [12] > 100 µM | [14] > 100 µM | [16] > 100 µM | [17] > 100 µM | [18] > 100 µM | [19] > 100 µM | [20] > 100 µM | [21] > 100 µM | [56] > 100 µM | [57] > 100 µM | [22] > 100 µM | [24] > 100 µM | [25] > 100 µM | [26] > 100 µM | [27] > 100 µM | [28] > 100 µM | [29] > 100 µM | [31] > 100 µM | [34] > 100 µM | [35] > 100 µM | [36] > 100 µM | [37] > 100 µM | [38] > 100 µM | [39] > 100 µM | [40] > 100 µM | [42] > 100 µM | [43] > 100 µM | [44] > 100 µM | [45] > 100 µM | [58] > 100 µM | [48] > 100 µM | [59] > 100 µM | [49] > 100 µM | [50] > 100 µM | [52] > 100 µM | [53] > 100 µM

COc1ccc(NC(=O)/C(=N/O)C(C)=O)cc1
inactive: [54] 45.1 µM | [1] > 100 µM | [2] > 100 µM | [55] > 100 µM | [60] > 100 µM | [3] 75.3 µM | [5] 42.5 µM | [6] 36.7 µM | [7] > 100 µM | [8] > 100 µM | [9] > 100 µM | [10] 96.8 µM | [12] > 100 µM | [13] > 100 µM | [14] > 100 µM | [15] > 100 µM | [16] > 100 µM | [17] > 100 µM | [18] 47.5 µM | [19] 87.9 µM | [20] > 100 µM | [21] 30.8 µM | [56] > 100 µM | [57] > 100 µM | [24] > 100 µM | [25] > 100 µM | [26] > 100 µM | [27] > 100 µM | [28] 23.5 µM | [33] > 100 µM | [34] > 100 µM | [35] > 100 µM | [36] > 100 µM | [37] > 100 µM | [38] > 100 µM | [39] > 100 µM | [40] > 100 µM | [41] > 100 µM | [42] > 100 µM | [43] > 100 µM | [44] > 100 µM | [45] > 100 µM | [46] > 100 µM | [47] > 100 µM | [58] > 100 µM | [48] 15.8 µM | [59] > 100 µM | [49] > 100 µM | [50] > 100 µM | [51] > 100 µM | [52] > 100 µM
17.5 µM: [11]

COc1ccc(/C=N/NC(=O)NCCCN(C)C)cc1
inactive: [1] > 100 µM | [2] > 100 µM | [55] > 100 µM | [3] > 100 µM | [5] > 100 µM | [6] > 100 µM | [7] > 100 µM | [10] > 100 µM | [12] > 100 µM | [13] > 100 µM | [16] > 100 µM | [17] > 100 µM | [18] > 100 µM | [20] > 100 µM | [21] 85.9 µM | [24] > 100 µM | [25] > 100 µM | [26] > 100 µM | [27] > 100 µM | [28] > 100 µM | [29] > 100 µM | [31] > 100 µM | [34] > 100 µM | [36] > 100 µM | [37] > 100 µM | [38] > 100 µM | [39] > 100 µM | [40] > 100 µM | [41] > 100 µM | [42] > 100 µM | [43] > 100 µM | [44] > 100 µM | [45] > 100 µM | [47] > 100 µM | [48] > 100 µM | [59] > 100 µM | [49] > 100 µM | [50] > 100 µM | [51] > 100 µM | [52] > 100 µM | [53] > 100 µM
> 100 µM: [11]
